# Columns and labels:
# Assay type in all cases: ADME
# Conditions in all cases: 0.5 h
# Cytochrome P450 1B1 [1] = molecular target: T1, Cytochrome P450 1B1 (Homo sapiens, UniProt Q16678); assay: Drug metabolism in supersomes expressing human recombinant CYP1B1 assessed as enzyme-mediated clozapine-N-oxide metabolite formation at 100 uM after 30 mins measured per nmol of P450 by HPLC analysis
# T1 sequence (Q16678 whole entry): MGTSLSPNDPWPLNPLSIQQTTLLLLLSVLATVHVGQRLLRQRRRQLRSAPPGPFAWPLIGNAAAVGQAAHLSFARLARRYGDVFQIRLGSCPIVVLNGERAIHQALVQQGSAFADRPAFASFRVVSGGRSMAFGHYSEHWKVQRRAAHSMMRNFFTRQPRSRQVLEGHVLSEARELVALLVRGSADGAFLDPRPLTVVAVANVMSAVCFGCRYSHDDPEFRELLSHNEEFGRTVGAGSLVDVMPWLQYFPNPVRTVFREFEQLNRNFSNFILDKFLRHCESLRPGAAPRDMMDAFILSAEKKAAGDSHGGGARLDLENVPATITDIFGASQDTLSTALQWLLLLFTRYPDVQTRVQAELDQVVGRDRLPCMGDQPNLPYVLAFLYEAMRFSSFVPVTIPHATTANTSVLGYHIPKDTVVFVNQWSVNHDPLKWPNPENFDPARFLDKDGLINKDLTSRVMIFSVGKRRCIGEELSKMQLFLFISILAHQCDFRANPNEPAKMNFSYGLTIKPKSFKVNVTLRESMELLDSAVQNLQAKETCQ
# Cytochrome P450 1A1 [2] = molecular target: T2, Cytochrome P450 1A1 (Homo sapiens, UniProt P04798); assay: Drug metabolism in supersomes expressing human recombinant CYP1A1 assessed as enzyme-mediated cyanide adduct formation at 100 uM after 30 mins measured per nmol of P450 by HPLC analysis in presence of KCN
# T2 sequence (P04798 whole entry): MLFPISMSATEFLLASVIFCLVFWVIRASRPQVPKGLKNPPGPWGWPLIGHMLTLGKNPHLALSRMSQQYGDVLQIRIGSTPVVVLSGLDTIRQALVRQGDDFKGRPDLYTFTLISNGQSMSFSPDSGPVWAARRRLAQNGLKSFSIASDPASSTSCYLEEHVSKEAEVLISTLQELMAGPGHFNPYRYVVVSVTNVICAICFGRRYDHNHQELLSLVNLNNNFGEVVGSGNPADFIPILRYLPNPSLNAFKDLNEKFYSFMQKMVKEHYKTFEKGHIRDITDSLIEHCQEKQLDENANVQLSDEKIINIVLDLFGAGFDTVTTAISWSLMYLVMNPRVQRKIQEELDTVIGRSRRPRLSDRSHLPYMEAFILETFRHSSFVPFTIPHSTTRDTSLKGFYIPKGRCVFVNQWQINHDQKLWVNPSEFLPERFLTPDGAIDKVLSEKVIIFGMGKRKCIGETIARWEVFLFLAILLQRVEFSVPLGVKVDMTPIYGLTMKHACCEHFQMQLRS
# Cytochrome P450 2C19 [3] = molecular target: T3, Cytochrome P450 2C19 (Homo sapiens, UniProt P33261); assay: Drug metabolism in supersomes expressing human recombinant CYP2C19 assessed as enzyme-mediated cyanide adduct formation at 100 uM after 30 mins measured per nmol of P450 by HPLC analysis in presence of KCN
# T3 sequence (P33261 whole entry): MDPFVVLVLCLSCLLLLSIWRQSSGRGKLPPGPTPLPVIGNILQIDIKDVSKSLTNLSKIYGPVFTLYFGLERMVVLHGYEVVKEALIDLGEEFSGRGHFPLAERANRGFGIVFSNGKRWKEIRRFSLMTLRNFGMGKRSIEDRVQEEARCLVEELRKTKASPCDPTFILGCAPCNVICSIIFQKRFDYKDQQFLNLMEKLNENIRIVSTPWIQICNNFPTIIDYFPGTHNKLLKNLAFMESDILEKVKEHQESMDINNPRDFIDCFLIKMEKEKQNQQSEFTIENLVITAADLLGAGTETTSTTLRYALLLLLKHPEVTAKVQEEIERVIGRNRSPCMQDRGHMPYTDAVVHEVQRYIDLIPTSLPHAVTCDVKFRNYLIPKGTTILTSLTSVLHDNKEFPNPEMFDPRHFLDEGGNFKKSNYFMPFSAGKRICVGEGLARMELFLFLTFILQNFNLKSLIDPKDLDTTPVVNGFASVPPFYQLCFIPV
# Cytochrome P450 1A2 [4] = molecular target: T4, Cytochrome P450 1A2 (Homo sapiens, UniProt P05177); assay: Drug metabolism in supersomes expressing human recombinant CYP1A2 assessed as enzyme-mediated cyanide adduct formation at 100 uM after 30 mins measured per nmol of P450 by HPLC analysis in presence of KCN
# T4 sequence (P05177 whole entry): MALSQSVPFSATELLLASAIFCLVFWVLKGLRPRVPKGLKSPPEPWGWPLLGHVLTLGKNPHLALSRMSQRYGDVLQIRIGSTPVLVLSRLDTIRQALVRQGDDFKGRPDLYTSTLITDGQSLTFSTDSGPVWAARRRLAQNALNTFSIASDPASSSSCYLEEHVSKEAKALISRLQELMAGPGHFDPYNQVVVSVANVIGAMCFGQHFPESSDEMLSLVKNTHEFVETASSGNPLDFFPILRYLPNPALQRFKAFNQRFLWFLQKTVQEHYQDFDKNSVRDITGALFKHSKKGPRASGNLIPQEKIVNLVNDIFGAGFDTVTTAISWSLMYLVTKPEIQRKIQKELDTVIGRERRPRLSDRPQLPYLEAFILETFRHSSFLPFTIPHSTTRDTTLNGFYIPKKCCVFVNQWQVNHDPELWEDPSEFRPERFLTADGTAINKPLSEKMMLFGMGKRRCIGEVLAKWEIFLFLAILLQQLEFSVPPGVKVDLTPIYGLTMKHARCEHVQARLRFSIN
# Cytochrome P450 2C9 [5] = molecular target: T5, Cytochrome P450 2C9 (Homo sapiens, UniProt P11712); assay: Drug metabolism in supersomes expressing human recombinant CYP2C9 assessed as enzyme-mediated N-desmethylclozapine metabolite formation at 10 uM after 30 mins measured per nmol of P450 by HPLC analysis
# T5 sequence (P11712 whole entry): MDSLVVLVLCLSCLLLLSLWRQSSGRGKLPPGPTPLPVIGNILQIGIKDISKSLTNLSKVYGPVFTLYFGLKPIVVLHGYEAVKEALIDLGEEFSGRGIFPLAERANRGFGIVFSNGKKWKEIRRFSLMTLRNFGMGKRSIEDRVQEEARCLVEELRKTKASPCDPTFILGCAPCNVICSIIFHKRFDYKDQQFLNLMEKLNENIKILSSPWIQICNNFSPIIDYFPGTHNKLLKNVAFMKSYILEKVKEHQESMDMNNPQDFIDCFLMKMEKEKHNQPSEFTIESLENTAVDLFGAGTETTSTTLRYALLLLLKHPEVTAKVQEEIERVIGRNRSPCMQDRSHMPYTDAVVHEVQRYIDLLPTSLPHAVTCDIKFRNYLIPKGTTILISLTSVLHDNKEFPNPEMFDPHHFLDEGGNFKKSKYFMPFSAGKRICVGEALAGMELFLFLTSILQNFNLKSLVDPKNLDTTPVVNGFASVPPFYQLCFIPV
# Cytochrome P450 2C9 [6] = molecular target: T5, Cytochrome P450 2C9; assay: Drug metabolism in supersomes expressing human recombinant CYP2C9 assessed as enzyme-mediated N-desmethylclozapine metabolite formation at 100 uM after 30 mins measured per nmol of P450 by HPLC analysis
# Cytochrome P450 1A1 [7] = molecular target: T2, Cytochrome P450 1A1; assay: Drug metabolism in supersomes expressing human recombinant CYP1A1 assessed as enzyme-mediated N-desmethylclozapine metabolite formation at 100 uM after 30 mins measured per nmol of P450 by HPLC analysis
# Cytochrome P450 1B1 [8] = molecular target: T1, Cytochrome P450 1B1; assay: Drug metabolism in supersomes expressing human recombinant CYP1B1 assessed as enzyme-mediated N-desmethylclozapine metabolite formation at 10 uM after 30 mins measured per nmol of P450 by HPLC analysis
# Cytochrome P450 1B1 [9] = molecular target: T1, Cytochrome P450 1B1; assay: Drug metabolism in supersomes expressing human recombinant CYP1B1 assessed as enzyme-mediated cyanide adduct formation at 100 uM after 30 mins measured per nmol of P450 by HPLC analysis in presence of KCN
# Cytochrome P450 1A2 [10] = molecular target: T4, Cytochrome P450 1A2; assay: Drug metabolism in supersomes expressing human recombinant CYP1A2 assessed as enzyme-mediated clozapine-N-oxide metabolite formation at 100 uM after 30 mins measured per nmol of P450 by HPLC analysis
# Cytochrome P450 2D6 = Cytochrome P450 2D6 (Homo sapiens, UniProt P10635); assay: Drug metabolism in supersomes expressing human recombinant CYP2D6 assessed as enzyme-mediated cyanide adduct formation at 100 uM after 30 mins measured per nmol of P450 by HPLC analysis in presence of KCN
# Sequence of Cytochrome P450 2D6 (P10635 whole entry): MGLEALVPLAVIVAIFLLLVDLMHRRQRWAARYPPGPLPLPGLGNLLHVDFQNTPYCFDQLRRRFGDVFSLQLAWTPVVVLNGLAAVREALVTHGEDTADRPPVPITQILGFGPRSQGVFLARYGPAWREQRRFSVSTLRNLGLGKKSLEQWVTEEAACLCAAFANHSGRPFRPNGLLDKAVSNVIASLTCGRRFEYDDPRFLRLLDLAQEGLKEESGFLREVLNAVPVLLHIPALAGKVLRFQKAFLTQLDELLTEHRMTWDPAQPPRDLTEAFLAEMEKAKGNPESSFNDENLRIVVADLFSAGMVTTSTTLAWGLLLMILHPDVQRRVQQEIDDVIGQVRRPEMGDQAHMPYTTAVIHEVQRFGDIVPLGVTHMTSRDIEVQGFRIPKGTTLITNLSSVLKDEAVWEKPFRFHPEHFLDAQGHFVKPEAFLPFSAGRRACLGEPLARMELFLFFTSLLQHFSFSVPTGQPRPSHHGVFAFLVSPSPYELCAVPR
# Cytochrome P450 1B1 [11] = molecular target: T1, Cytochrome P450 1B1; assay: Drug metabolism in supersomes expressing human recombinant CYP1B1 assessed as enzyme-mediated total GSH conjugate formation at 100 uM after 30 mins measured per nmol of P450 by HPLC analysis in presence of GSH and hGST P1-1
# Cytochrome P450 2C19 [12] = molecular target: T3, Cytochrome P450 2C19; assay: Drug metabolism in supersomes expressing human recombinant CYP2C19 assessed as enzyme-mediated clozapine-N-oxide metabolite formation at 100 uM after 30 mins measured per nmol of P450 by HPLC analysis
# Cytochrome P450 2C9 [13] = molecular target: T5, Cytochrome P450 2C9; assay: Drug metabolism in supersomes expressing human recombinant CYP2C9 assessed as enzyme-mediated cyanide adduct formation at 100 uM after 30 mins measured per nmol of P450 by HPLC analysis in presence of KCN
structure (smiles),measurement,setting,value
CN1CCN(C2=Nc3cc(Cl)ccc3Nc3ccccc32)CC1 [CLOZAPINE],Drug metabolism,Cytochrome P450 1B1 [1],0.64 nmol/min/nmol P450
same,Drug metabolism,Cytochrome P450 1A1 [2],0.024 nmol/min
same,Drug metabolism,Cytochrome P450 2C19 [3],0.03 nmol/min
same,Drug metabolism,Cytochrome P450 1A2 [4],0.2 nmol/min
same,Drug metabolism,Cytochrome P450 2C9 [5],0.33 nmol/min
same,Drug metabolism,Cytochrome P450 2C9 [6],0.22 nmol/min
same,Drug metabolism,Cytochrome P450 1A1 [7],0.56 nmol/min
same,Drug metabolism,Cytochrome P450 1B1 [8],1.16 nmol/min
same,Drug metabolism,Cytochrome P450 1B1 [9],0.01 nmol/min
same,Drug metabolism,Cytochrome P450 1A2 [10],3.7 nmol/min
same,Drug metabolism,Cytochrome P450 2D6,0.64 nmol/min
same,Drug metabolism,Cytochrome P450 1B1 [11],0.15 nmol/min
same,Drug metabolism,Cytochrome P450 2C19 [12],0.58 nmol/min/nmol P450
same,Drug metabolism,Cytochrome P450 2C9 [13],0.01 nmol/min

# Source: ChEMBL document CHEMBL3525934 (Drug Metab Dispos, 2013)
